Biological target: EGFR WT (Homo sapiens (Human), UniProt P00533)
Assay: ErbB enzyme assay (CisBio HTRF-KinEASE-TK), EGFR WT
Type: biochemical
Details: ATP at Km (25 μM), 1 h incubation
Summary of the method: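 HTRF KinEASE-TK kinase assay, 1 h at ambient temperature with three-fold serial compound dilutions, then 1 h detection with Sa-XL665/TK-Ab-Cryptate. IC50 is the 50 POC point of a 4-parameter logistic fit.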

Sequence of EGFR WT (P00533 25-1210): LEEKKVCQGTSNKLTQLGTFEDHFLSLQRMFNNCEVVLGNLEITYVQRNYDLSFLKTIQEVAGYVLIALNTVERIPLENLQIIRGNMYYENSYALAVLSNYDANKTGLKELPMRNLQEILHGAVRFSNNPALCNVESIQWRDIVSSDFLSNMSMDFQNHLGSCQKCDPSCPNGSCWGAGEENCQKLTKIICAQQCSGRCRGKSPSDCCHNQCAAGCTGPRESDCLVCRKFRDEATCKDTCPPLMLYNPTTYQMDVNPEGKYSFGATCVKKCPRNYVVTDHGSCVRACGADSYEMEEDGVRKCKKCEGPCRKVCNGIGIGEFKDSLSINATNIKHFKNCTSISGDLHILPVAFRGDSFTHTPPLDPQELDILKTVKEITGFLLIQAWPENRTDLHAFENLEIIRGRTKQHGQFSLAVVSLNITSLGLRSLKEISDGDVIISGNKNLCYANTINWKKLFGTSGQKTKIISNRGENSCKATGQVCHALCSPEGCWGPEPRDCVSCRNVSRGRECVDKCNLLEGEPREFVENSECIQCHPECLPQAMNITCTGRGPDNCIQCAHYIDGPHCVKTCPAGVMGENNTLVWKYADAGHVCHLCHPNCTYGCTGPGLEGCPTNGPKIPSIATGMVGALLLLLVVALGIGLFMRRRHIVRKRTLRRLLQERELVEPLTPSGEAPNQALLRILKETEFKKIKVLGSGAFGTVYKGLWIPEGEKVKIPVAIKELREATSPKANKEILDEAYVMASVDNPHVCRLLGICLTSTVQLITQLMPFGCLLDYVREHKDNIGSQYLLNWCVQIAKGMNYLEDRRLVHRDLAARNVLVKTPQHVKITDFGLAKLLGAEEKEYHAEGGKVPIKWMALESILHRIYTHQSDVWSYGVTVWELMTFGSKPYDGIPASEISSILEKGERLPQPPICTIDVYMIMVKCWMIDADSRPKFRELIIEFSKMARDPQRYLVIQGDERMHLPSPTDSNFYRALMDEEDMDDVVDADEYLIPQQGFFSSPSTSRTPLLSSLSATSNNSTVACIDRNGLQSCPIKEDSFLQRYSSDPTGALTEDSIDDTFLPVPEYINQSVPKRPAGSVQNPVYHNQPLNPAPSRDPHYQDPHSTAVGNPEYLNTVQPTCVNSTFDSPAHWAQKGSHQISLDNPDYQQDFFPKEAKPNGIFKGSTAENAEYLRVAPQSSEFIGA

IC50 | SMILES
< 50 nM | C=CC(=O)N1CCN(c2ccc3ncnc(Nc4c(OC)cc(Oc5cc(F)c6c(c5)ncn6C)c(C)c4F)c3n2)C[C@H]1C [Compound 257, (R)-1-(4-(4-((2-fluoro-4-((7-fluoro-1-methyl-1H-benzo[d]imidazol-5-yl)oxy)-6-methoxy-3-methylphenyl)amino)pyrido[3,2-d]pyrimidin-6-yl)-2-methylpiperazin-1-yl)prop-2-en-1-one]
100 to 500 nM | C=CC(=O)N1CCN(c2ncc3ncnc(Nc4cc(C)c(Oc5cc(F)c6c(c5)ncn6C)cc4OC)c3n2)CC1 [Compound 38, 1-(4-(8-((4-((7-fluoro-1-methyl-1H-benzo[d]imidazol-5-y1)oxy)-2-methoxy-5-methylphenyl)amino)pyrimido[5,4-d]pyrimidin-2-yl)piperazin-1-yl)prop-2-en-1-one 2,2,2-trifluoroacetate]
500 to 1000 nM | C=CC(=O)N[C@H]1CN(c2ccc3ncnc(Nc4ccc(Oc5ccc6c(c5)nnn6C)c(C)c4F)c3n2)C[C@H]1F [Compound 301, N-((3S,4R)-4-fluoro-1-(4-((2-fluoro-3-methyl-4-((1-methyl-1H-benzo[d][1,2,3]triazol-5-yl)oxy)phenyl)amino)pyrido[3,2-d]pyrimidin-6-yl)pyrrolidin-3-yl)acrylamide]
100 to 500 nM | C=CC(=O)N[C@@H]1CN(c2ncc3ncnc(Nc4ccc(Oc5ccc6c(c5)nnn6C)c(C)c4F)c3n2)CC[C@H]1C [Compound 230, N-((3S,4R)-1-(8-((2-fluoro-3-methyl-4-((1-methyl-1H-benzo[d][1,2,3]triazol-5-yl)oxy)phenyl)amino)pyrimido[5,4-d]pyrimidin-2-yl)-4-methylpiperidin-3-yl)acrylamide]
< 50 nM | C=CC(=O)N1CCC(Oc2ncc3ncnc(Nc4ccc(Oc5ccc6c(c5)ncn6C(F)F)c(C)c4)c3n2)CC1 [Compound 380, 1-(4-((8-((4-((1-(difluoromethyl)-1H-benzo[d]imidazol-5-yl)oxy)-3-methylphenyl)amino)pyrimido[5,4-d]pyrimidin-2-y1)oxy)piperidin-1-yl)prop-2-en-1-one]
100 to 500 nM | C=CC(=O)N1CCN(c2ncc3ncnc(Nc4ccc(Oc5cc(F)c6c(c5)nnn6C)c(C)c4F)c3n2)C[C@H]1C1CC1 [Compound 197, (R)-1-(2-cyclopropyl-4-(8-((2-fluoro-4-((7-fluoro-1-methyl-1H-benzo[d][1,2,3]triazol-5-yl)oxy)-3-methylphenyl)amino)pyrimido[5,4-d]pyrimidin-2-yl)piperazin-1-yl)prop-2-en-1-one]
< 50 nM | C=CC(=O)N1CCN(c2ncc3ncnc(Nc4ccc(Oc5ccc6c(c5)nnn6C)c(C)c4)c3n2)C[C@@H]1CF (single isomer, unassigned) [Compound 199]
50 to 100 nM | C=CC(=O)N1CCC(Oc2ncc3ncnc(Nc4ccc(Oc5ccc6c(c5)ncn6C)c(C)c4)c3n2)CC1 [Compound 378, 1-(4-((8-((3-methyl-4-((1-methyl-1H-benzo[d]imidazol-5-yl)oxy)phenyl)amino)pyrimido[5,4-d]pyrimidin-2-yl)oxy)piperidin-1-yl)prop-2-en-1-one]
500 to 1000 nM | C=CC(=O)N[C@H]1CCCN(c2ccc3ncnc(Nc4ccc(Oc5ccc6c(c5)nnn6C)c(C)c4F)c3n2)CC1 [Compound 282, (S)-N-(1-(4-((2-fluoro-3-methyl-4-((1-methyl-1H-benzo[d][1,2,3]triazol-5-yl)oxy)phenyl)amino)pyrido[3,2-d]pyrimidin-6-yl)azepan-4-yl)acrylamide]
100 to 500 nM | C=CC(=O)NC1CC(N(C)c2ncc3ncnc(Nc4ccc(Oc5ccc6c(c5)nnn6C)c(C)c4)c3n2)C1 (stereo not shown) [Compound 142, N-(3-(methyl(8-((3-methyl-4-((1-methyl-1H-benzo[d][1,2,3]triazol-5-yl)oxy)phenyl)amino)pyrimido [5,4-d]pyrimidin-2-yl)amino)cyclobutyl)acrylamide]
100 to 500 nM | C=CC(=O)N[C@H]1CN(c2ccc3ncnc(Nc4ccc(Oc5ccc6c(c5)nnn6C)c(C)c4)c3n2)C[C@H]1F [Compound 277, N-((3S,4R)-4-fluoro-1-(4-((3-methyl-4-((1-methyl-1H-benzo[d][1,2,3]triazol-5-yl)oxy)phenyl)amino)pyrido[3,2-d]pyrimidin-6-yl)pyrrolidin-3-yl)acrylamide]
100 to 500 nM | C=CC(=O)N1CCN(c2ccc3ncnc(Nc4cc(C)c(Oc5ccc6c(c5)nnn6C)cc4OC)c3n2)CC1 [Compound 79, 1-(4-(4-((2-methoxy-5-methyl-4-((1-methyl-1H-benzo[d][1,2,3]triazol-5-yl)oxy)phenyl)amino)pyrido[3,2-d]pyrimidin-6-yl)piperazin-1-yl)prop-2-en-1-one]
100 to 500 nM | C=CC(=O)N[C@H]1C[C@@H](C)CN(c2ccc3ncnc(Nc4ccc(Oc5ccc6c(c5)nnn6C)c(C)c4F)c3n2)C1 (single isomer, unassigned) [Compound 337]
≥ 1000 nM | C=C(F)C(=O)N1CCN(c2ncc3ncnc(Nc4ccc(Oc5ccc6c(c5)nnn6C)c(C)c4)c3n2)C[C@H]1COC [Compound 211, (S)-2-fluoro-1-(2-(methoxymethyl)-4-(8-((3-methyl-4-((1-methyl-1H-benzo[d][1,2,3]triazol-5-yl)oxy)phenyl)amino)pyrimido [5,4-d]pyrimidin-2-yl)piperazin-1-yl) prop-2-en-1-one]
< 50 nM | C=CC(=O)N1CCN(c2ccc3ncnc(Nc4ccc(Oc5ccc6c(c5)nnn6C)c(C)c4)c3n2)C[C@H]1COC [Compound 77, (S)-1-(2-(methoxymethyl)-4-(4-((3-methyl-4-((1-methyl-1H-benzo[d][1,2,3]triazol-5-yl)oxy)phenyl)amino)pyrido[3,2-d]pyrimidin-6-yl)piperazin-1-yl)prop-2-en-1-one]
500 to 1000 nM | C=CC(=O)N[C@@H]1CCN(c2ccc3ncnc(Nc4ccc(Oc5ccc6c(c5)nnn6C)c(C)c4F)c3n2)C[C@@H]1F [Compound 279, N-((3S,4R)-3-fluoro-1-(4-((2-fluoro-3-methyl-4-((1-methyl-1H-benzo[d][1,2,3]triazol-5-yl)oxy)phenyl)amino)pyrido[3,2-d]pyrimidin-6-yl)piperidin-4-yl)acrylamide]
100 to 500 nM | C=CC(=O)N[C@@H]1CN(c2ccc3ncnc(Nc4ccc(Oc5ccc6c(c5)nnn6C)c(C)c4F)c3n2)CC[C@H]1C [Compound 309, N-((3S,4R)-1-(4-((2-fluoro-3-methyl-4-((1-methyl-1H-benzo[d][1,2,3]triazol-5-yl)oxy)phenyl)amino)pyrido[3,2-d]pyrimidin-6-yl)-4-methylpiperidin-3-y1)acrylamide]
50 to 100 nM | C=CC(=O)N1CCN(c2ccc3ncnc(Nc4ccc(Oc5ccc6c(c5)nnn6C)c(C)c4)c3n2)CC1(C)C [Compound 89, 1-(2,2-dimethyl-4-(4-((3-methyl-4-((1-methyl-1H-benzo[d][1,2,3]triazol-5-yl)oxy)phenyl)amino)pyrido[3,2-d]pyrimidin-6-yl)piperazin-1-yl)prop-2-en-1-one]
≥ 1000 nM | C=CC(=O)N1CCN(c2ncc3ncnc(Nc4ccc(Oc5ccc6c(c5)nnn6C)c(C)c4)c3n2)C[C@@H]1C(C)C [Compound 122, (S)-1-(2-isopropyl-4-(8-((3-methyl-4-((1-methyl-1H-benzo[d][1,2,3]triazol-5-yl)oxy)phenyl)amino)pyrimido[5,4-d]pyrimidin-2-yl)piperazin-1-y1)prop-2-en-1-one]

From patent US20250129078A1, “ERBB2 INHIBITORS” (Cogent Biosciences, Inc., priority 2023, published 2025)
